Laboratory results: patent US10072006B2 (MUTABILIS, priority 2015, dated 2018)
Converted amounts (≈) assume the structure as drawn. Where two headings read alike, the source gives them in different places.

Key:
[1] = biological target: T1, KPC-2 (Klebsiella pneumoniae, UniProt Q9F663); assay: β-lactamase inhibitory activity, determination of IC50 (nitrocefin hydrolysis); type: biochemical
T1 construct: made in house; host or cells: E. coli

[2] = biological target: T2, SHV-1 (Klebsiella pneumoniae, UniProt P0AD64); assay: as above; type: biochemical
T2 construct: made in house; host or cells: E. coli

[3] = biological target: T3, OXA-11 (Pseudomonas aeruginosa, UniProt Q06778); assay: as above; type: biochemical
T3 construct: made in house; host or cells: E. coli

[4] = biological target: T4, TEM-1 (Escherichia coli, UniProt P62593); assay: as above; type: biochemical; conditions: class (A), 30 min pre-incubation
T4 construct: made in house; host or cells: E. coli

[5] = biological target: T5, OXA-15 (Pseudomonas aeruginosa, UniProt Q51574); assay: as above; type: biochemical
T5 construct: made in house; host or cells: E. coli

[6] = biological target: AmpC (P99) (Enterobacter cloacae, UniProt P05364); assay: biochemical
[7] = biological target: T6, CTX-M-15 (Escherichia coli, UniProt Q9EXV5); assay: β-lactamase inhibitory activity, determination of IC50 (nitrocefin hydrolysis); type: biochemical
T6 construct: made in house; host or cells: E. coli

[8] = tested on: P. aeruginosa CIP107051 (TEM-24); assay: MIC of compounds and synergy with ceftazidime (broth microdilution); type: cell-based; conditions: for MIC, combination of CAZ and compounds of the invention: MIC of ceftazidime with compound fixed at 4 μg/mL; for MIC: Pseudomonas aeruginosa, read-out: MIC compounds of the invention alone
Protocol: (§1) Briefly, compounds alone according to the invention were prepared in DMSO and spotted (2 μL each) on sterile polystyrene plates (Corning, 3788). […] Microplates were incubated for 16-20 h at 35° C. in ambient air. The MIC of the compounds was defined as the lowest concentration of said compounds that prevented bacterial growth as read by visual inspection.

[9] = tested on: P. aeruginosa UFR47 (VIM-1); assay: as above; type: cell-based; conditions: for MIC, combination of CAZ and compounds of the invention: MIC of ceftazidime with compound fixed at 4 μg/mL, strain UFR47 (P. aeruginosa)
Protocol: as §1

[10] = tested on: P. aeruginosa UFR59 (IMP-29); assay: as above; type: cell-based; conditions: for MIC, combination of CAZ and compounds of the invention: MIC of ceftazidime with compound fixed at 4 μg/mL, strain UFR59 (P. aeruginosa)
Protocol: as §1

[11] = tested on: P. aeruginosa UFR48 (VIM-2); assay: as above; type: cell-based; conditions: for MIC, combination of CAZ and compounds of the invention: MIC of ceftazidime with compound fixed at 4 μg/mL, strain UFR48 (P. aeruginosa)
Protocol: as §1

[12] = tested on: P. aeruginosa UFR35 (OXA-23); assay: as above; type: cell-based; conditions: for MIC, combination of CAZ and compounds of the invention: MIC of ceftazidime with compound fixed at 4 μg/mL, strain UFR35 (P. aeruginosa)
Protocol: as §1

[13] = tested on: E. coli 131119 (TEM-1, OXA-48); assay: as above; type: cell-based; conditions: Escherichia coli, 18 h, read-out: MIC compounds of the invention alone
Protocol: as §1

[14] = tested on: K. pneumoniae 6299 (TEM-1, SHV-11, OXA-163); assay: as above; type: cell-based; conditions: for MIC: Klebsiella pneumoniae, 18 h, read-out: MIC compounds of the invention alone; for MIC, combination of CAZ and compounds of the invention: MIC of ceftazidime with compound fixed at 4 μg/mL
Protocol: as §1

[15] = tested on: P. aeruginosa UFR93 (Derepressed ampC, OprD-, MexAB+, MexXY+); assay: as above; type: cell-based; conditions: for MIC, combination of CAZ and compounds of the invention: MIC of ceftazidime with compound fixed at 4 μg/mL, strain UFR93 (P. aeruginosa)
Protocol: as §1

[16] = tested on: P. aeruginosa UFR90 (Derepressed ampC, OprD-); assay: as above; type: cell-based; conditions: for MIC, combination of CAZ and compounds of the invention: MIC of ceftazidime with compound fixed at 4 μg/mL, strain UFR90 (P. aeruginosa)
Protocol: as §1

[17] = tested on: E. coli RGN238 (OXA-1); assay: as above; type: cell-based; conditions: Escherichia coli, 18 h, read-out: MIC compounds of the invention alone
Protocol: as §1

[18] = tested on: P. aeruginosa CIP105250 (OXA-15); assay: as above; type: cell-based; conditions: for MIC, combination of CAZ and compounds of the invention: MIC of ceftazidime with compound fixed at 4 μg/mL; for MIC: Pseudomonas aeruginosa, read-out: MIC compounds of the invention alone
Protocol: as §1

[19] = tested on: K. pneumoniae BAA-1898 (TEM-1, SHV-11, SHV-12, KPC-2); assay: as above; type: cell-based; conditions: for MIC: Klebsiella pneumoniae; for MIC, combination of CAZ and compounds of the invention: MIC of ceftazidime with compound fixed at 4 μg/mL
Protocol: as §1

[20] = tested on: P. aeruginosa UFR92 (Derepressed ampC, OprD-); assay: as above; type: cell-based; conditions: for MIC, combination of CAZ and compounds of the invention: MIC of ceftazidime with compound fixed at 4 μg/mL, strain UFR92 (P. aeruginosa)
Protocol: as §1

[21] = tested on: E. cloacae P99 (Derepressed ampC); assay: as above; type: cell-based; conditions: for MIC: Enterobacter cloacae, 18 h, read-out: MIC compounds of the invention alone; for MIC, combination of CAZ and compounds of the invention: MIC of ceftazidime with compound fixed at 4 μg/mL
Protocol: as §1

[22] = biological target: T7, OXA-48 (Klebsiella pneumoniae, UniProt Q6XEC0); assay: β-lactamase inhibitory activity, determination of IC50 (nitrocefin hydrolysis); type: biochemical
T7 construct: made in house; host or cells: E. coli

[23] = biological target: T8, OXA-1 (Escherichia coli, UniProt P13661); assay: as above; type: biochemical
T8 construct: made in house; host or cells: E. coli

[24] = tested on: E. coli 190317 (TEM-1, SHV-12, CTX-M-15, OXA-1); assay: microbe, parasite or virus in culture; type: cell-based; conditions: for MIC: Escherichia coli, 18 h, read-out: MIC compounds of the invention alone; for MIC, combination of CAZ and compounds of the invention: MIC of ceftazidime with compound fixed at 4 μg/mL, strain 190317 (E. coli)
Protocol: as §1

[25] = biological target: AmpC (PAE) (Pseudomonas aeruginosa, UniProt P24735); assay: biochemical
[26] = strain CIP107051 (P. aeruginosa)
[27] = Pseudomonas aeruginosa, 18 h, read-out: MIC compounds of the invention alone
[28] = strain CIP105250 (P. aeruginosa)
[29] = strain BAA-1898 (K. pneumoniae)

Row | Compound | IC50 [1] [nM] | IC50 [2] [nM] | IC50 [3] [nM] | IC50 [4] [nM] | IC50 [5] [nM] | IC50 [6] [nM] | IC50 [7] [nM] | MIC, combination of CAZ and compounds of the invention [8, 26] [µg/mL] | MIC, combination of CAZ and compounds of the invention [9] [µg/mL] | MIC, combination of CAZ and compounds of the invention [10] [µg/mL] | MIC, combination of CAZ and compounds of the invention [11] [µg/mL] | MIC, combination of CAZ and compounds of the invention [12] [µg/mL] | MIC, combination of CAZ and compounds of the invention ([14]; strain 6299 (K. pneumoniae)) [µg/mL] | MIC, combination of CAZ and compounds of the invention [15] [µg/mL] | MIC, combination of CAZ and compounds of the invention [16] [µg/mL] | MIC, combination of CAZ and compounds of the invention [18, 28] [µg/mL] | MIC, combination of CAZ and compounds of the invention [19, 29] [µg/mL] | MIC, combination of CAZ and compounds of the invention [20] [µg/mL] | MIC, combination of CAZ and compounds of the invention ([21]; strain P99 (E. cloacae)) [µg/mL] | IC50 [22] [nM] | other results
1 | NC[C@@H]1C=C(c2cnco2)[C@@H]2CN1C(=O)N2OC(F)(F)C(=O)O (relative stereo) [Example 3, lithium and 2,2,2-trifluoroacetate [trans-2-(azaniumylmethyl)-4-oxazol-5-yl-7-oxo-1,6-diazabicyclo[3.2.1]oct-3-en-6-yl]oxy]-2,2-difluoro-acetate] | 33 | 4.6 | 48 | 3 | 1.6 | 7.4 | 2 | ≤0.25 | <0.25 | 2 | 16 | <0.25 | 1 | 0.5 | <0.25 | 8 | 1 | ≤0.25 | <0.125 | 5.7 | MIC ([8]; CIP107051, 18 h): 16 µg/mL; MIC [9, 27]: 4 µg/mL; MIC [10, 27]: 16 µg/mL; MIC [11, 27]: 8 µg/mL; MIC [12, 27]: 2 µg/mL; MIC [13]: 0.5 µg/mL; MIC [14]: > 32 µg/mL; MIC [15, 27]: 16 µg/mL; MIC [16, 27]: 1 µg/mL; MIC [17]: > 32 µg/mL; MIC ([18]; CIP105250, 18 h): > 32 µg/mL; MIC ([19]; BAA1898, read-out: MIC compounds of the invention alone): > 32 µg/mL; MIC [20, 27]: 8 µg/mL; MIC [21]: 0.063 µg/mL; IC50 [23]: 17 nM; MIC [24]: 0.25 µg/mL (≈ 0.757 µM); MIC, combination of CAZ and compounds of the invention [24]: <0.125 µg/mL; IC50 [25]: 220 nM
2 | Cn1cc(C2=C[C@@H](CN)N3C[C@@H]2N(OS(=O)(=O)O)C3=O)cnc1=O (relative stereo) [Example 6] | 5100 | 340 | 1600 | 280 | 68 | 6400 | 510 | 32 | <0.25 | <0.25 | <0.25 | <0.25 | 4 | <0.25 | <0.25 | 64 | 4 | <0.25 | ≤0.125 | 840 | MIC ([8]; 18 h, strain CIP107051 (P. aeruginosa)): 16 µg/mL; MIC ([13]; strain 131119 (E. coli)): > 32 µg/mL; MIC ([14]; strain 6299 (K. pneumoniae)): > 32 µg/mL; MIC ([17]; strain RGN238 (E. coli)): > 32 µg/mL; MIC ([18]; 18 h, strain CIP105250 (P. aeruginosa)): 32 µg/mL; MIC ([19]; BAA1898, strain BAA-1898 (K. pneumoniae), read-out: MIC compounds of the invention alone): > 32 µg/mL; MIC ([21]; strain P99 (E. cloacae)): 0.125 µg/mL; IC50 [23]: 1200 nM; MIC [24]: 0.125 µg/mL (≈ 0.35 µM); MIC, combination of CAZ and compounds of the invention [24]: <0.125 µg/mL; IC50 [25]: 38000 nM
